The record followed here is ChEMBL document CHEMBL1130296, “Benzo[c]quinoliziniums: A new family of inhibitors for protein kinase CK II” (Bioorg Med Chem Lett, 1997).

The structures appear in SMILES notation. Some results are limits rather than exact numbers.

Proto-oncogene tyrosine-protein kinase Src, sequence (P12931 2-536 limits assumed): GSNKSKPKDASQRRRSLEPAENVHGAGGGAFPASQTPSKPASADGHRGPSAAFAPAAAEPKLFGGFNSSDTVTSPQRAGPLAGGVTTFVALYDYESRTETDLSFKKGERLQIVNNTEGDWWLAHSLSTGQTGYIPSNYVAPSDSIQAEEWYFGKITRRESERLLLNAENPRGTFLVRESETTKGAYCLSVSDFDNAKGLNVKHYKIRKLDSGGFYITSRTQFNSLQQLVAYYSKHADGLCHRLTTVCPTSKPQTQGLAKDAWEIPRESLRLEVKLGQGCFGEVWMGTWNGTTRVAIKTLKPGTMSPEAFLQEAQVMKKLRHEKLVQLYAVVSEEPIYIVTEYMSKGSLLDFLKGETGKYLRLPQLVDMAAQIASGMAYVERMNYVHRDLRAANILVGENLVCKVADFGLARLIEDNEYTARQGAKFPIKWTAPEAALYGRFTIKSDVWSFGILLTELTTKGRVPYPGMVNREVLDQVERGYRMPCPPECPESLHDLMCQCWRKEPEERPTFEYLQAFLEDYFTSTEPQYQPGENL

In the first experiment the target is T1, Casein kinase II (Homo sapiens, UniProt P19784+P67870+P68400). Kind of experiment: Inhibitory concentration was determined towards Casein kinase 2. It counts as protein-complex assay.
T1 sequence (P67870 whole entry): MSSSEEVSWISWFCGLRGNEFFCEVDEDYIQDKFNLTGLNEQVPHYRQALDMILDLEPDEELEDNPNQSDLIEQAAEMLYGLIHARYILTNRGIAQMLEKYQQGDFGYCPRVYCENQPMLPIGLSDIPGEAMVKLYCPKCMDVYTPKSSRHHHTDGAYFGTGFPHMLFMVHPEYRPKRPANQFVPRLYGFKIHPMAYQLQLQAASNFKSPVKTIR
T1 sequence (P68400 whole entry): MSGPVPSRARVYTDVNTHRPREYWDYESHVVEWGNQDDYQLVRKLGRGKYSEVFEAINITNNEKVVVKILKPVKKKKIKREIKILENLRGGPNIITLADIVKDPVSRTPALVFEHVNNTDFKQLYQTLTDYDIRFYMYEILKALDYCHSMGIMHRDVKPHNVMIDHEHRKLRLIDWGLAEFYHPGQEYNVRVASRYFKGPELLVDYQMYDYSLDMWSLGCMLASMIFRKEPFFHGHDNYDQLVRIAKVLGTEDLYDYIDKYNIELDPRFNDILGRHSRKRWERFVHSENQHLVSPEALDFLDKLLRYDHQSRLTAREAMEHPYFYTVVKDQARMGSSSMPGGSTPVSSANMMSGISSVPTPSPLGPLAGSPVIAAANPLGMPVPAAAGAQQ
T1 sequence (P19784 whole entry): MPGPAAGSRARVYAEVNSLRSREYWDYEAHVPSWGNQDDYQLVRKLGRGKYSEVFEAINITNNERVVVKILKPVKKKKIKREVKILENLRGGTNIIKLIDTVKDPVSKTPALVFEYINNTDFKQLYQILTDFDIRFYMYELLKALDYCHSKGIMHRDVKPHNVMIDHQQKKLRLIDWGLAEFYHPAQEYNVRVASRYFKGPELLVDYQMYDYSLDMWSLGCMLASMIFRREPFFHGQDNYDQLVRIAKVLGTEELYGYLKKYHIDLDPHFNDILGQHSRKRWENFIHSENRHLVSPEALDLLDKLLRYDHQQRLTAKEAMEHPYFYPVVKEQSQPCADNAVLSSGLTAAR
For `O/C(=C/c1ccccn1)c1ccc(Cl)cc1Cl`, the half-maximal inhibitory concentration (IC50) – broadly, the midpoint of a concentration-inhibition curve – was 900 µM. Same read-out and setting: with `O/C(=C/c1ccccn1)c1cccc(Cl)c1Cl` the figure was 130 µM; with `Oc1cc2cccc[n+]2c2ccc(Cl)cc12`, 210 µM; with `Nc1cc2cccc[n+]2c2ccccc12` [listing 1 of 2 here], 110 µM. On the same count and under the same terms, for `O/C(=C/c1ccccn1)c1ccccc1Br` the value was 820 µM; for `Oc1cc2cccc[n+]2c2cc(Cl)ccc12`, 39 µM.

`Oc1cc2cccc[n+]2c2ccccc12` [listing 1 of 2 here]: the IC50 stood at 43 µM. Still for that read-out and setting: for `Nc1cc2cccc[n+]2c2cccc(Cl)c12` the value was 84 µM. On the same count and under the same terms, with `Nc1cc2cccc[n+]2c2cc(Cl)ccc12` the figure was 24 µM; with `O/C(=C/c1ccccn1)c1ccccc1`, 2500 µM; with `Oc1cc2cccc[n+]2c2cccc(Cl)c12`, 18 µM. Still for that read-out and setting: for `O/C(=C/c1ccccn1)c1ccccc1Cl` the value was 1200 µM; for `Oc1cc2cccc[n+]2c2ccccc12` [listing 2 of 2 here], 50 µM. For the compound `Nc1cc2cccc[n+]2c2ccccc12` [listing 2 of 2 here], the IC50 came to 100 µM.

The compound `Nc1cc2cccc[n+]2c2c(Cl)cccc12` returned an IC50 of 50 µM. Same read-out and setting: with `O/C(=C/c1ccccn1)c1c(Cl)cccc1Cl` the figure was 580 µM.

The target of the next experiment is Protein kinase C (PKC). The experiment is described as follows: Inhibition of protein kinase C. It counts as protein assay.
On to `Oc1cc2cccc[n+]2c2c(Cl)cccc12.[Cl-]`, for which the IC50 came to 38 µM.

A further experiment concerns the target T1, Casein kinase II. The experiment is described as follows: Inhibition of casein kinase II. It counts as protein-complex assay.
In turn, `Oc1cc2cccc[n+]2c2c(Cl)cccc12.[Cl-]` registered an IC50 of 5 µM.

The target of the next experiment is Cyclin-dependent kinase 1 (Homo sapiens, UniProt P06493). The experiment is described as follows: Inhibition of cyclin-dependent kinase 1 cdc2.
Cyclin-dependent kinase 1, sequence (P06493 whole entry): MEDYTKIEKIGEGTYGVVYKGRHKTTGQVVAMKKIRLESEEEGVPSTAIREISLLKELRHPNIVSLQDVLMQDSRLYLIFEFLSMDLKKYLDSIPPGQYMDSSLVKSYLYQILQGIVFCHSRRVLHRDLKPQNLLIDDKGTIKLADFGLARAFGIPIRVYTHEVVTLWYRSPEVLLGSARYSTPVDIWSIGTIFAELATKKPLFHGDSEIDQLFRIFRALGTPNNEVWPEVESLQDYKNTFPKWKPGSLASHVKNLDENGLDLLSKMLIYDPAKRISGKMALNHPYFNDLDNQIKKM
On to `Oc1cc2cccc[n+]2c2c(Cl)cccc12.[Cl-]`, for which the IC50 was above 1000 µM.

Another experiment has as its target Proto-oncogene tyrosine-protein kinase Src (Homo sapiens, UniProt P12931). Kind of experiment: Inhibition of p60 c-Src tyrosine kinase (No inhibition).
As for `Oc1cc2cccc[n+]2c2c(Cl)cccc12.[Cl-]`, the IC50 entry is given as “Not Active”.
